Like-named read-outs stand apart in the source and are kept apart here.
Target: T1, ACAT 2 (Mus musculus, UniProt O88908)
T1 construct: The source of ACAT 2 enzyme used was a membrane fraction derived from mouse liver microsome; from tissue; host or cells: mouse liver (microsome fraction)
T1 sequence (O88908 1-525): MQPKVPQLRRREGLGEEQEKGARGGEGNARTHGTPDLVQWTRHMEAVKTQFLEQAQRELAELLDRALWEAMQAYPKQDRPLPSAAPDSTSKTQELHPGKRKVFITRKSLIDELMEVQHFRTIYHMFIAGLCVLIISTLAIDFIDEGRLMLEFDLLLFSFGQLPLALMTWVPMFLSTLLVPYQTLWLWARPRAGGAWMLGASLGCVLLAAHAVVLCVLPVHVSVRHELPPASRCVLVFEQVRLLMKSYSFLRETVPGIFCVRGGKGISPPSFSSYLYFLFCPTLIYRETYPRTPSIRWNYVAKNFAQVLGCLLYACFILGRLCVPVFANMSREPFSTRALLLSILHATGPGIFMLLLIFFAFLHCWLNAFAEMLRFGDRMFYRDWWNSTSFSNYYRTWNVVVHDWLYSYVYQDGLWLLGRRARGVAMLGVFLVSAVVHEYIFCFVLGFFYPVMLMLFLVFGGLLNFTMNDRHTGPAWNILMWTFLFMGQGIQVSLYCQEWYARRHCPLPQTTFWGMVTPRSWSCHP
Assay: ACAT-inhibiting activity, mouse liver microsome membrane fraction, [14C]oleoyl-CoA
Type: biochemical
Conditions: for Specific activity: (inhibitory activity of test compound)/(inhibitory activity of pyripyropene A): relative to pyripyropene A
Experimental: The source of ACAT 2 enzyme used was a membrane fraction derived from mouse liver microsome. Mouse liver was homogenized in buffer solution A (50 mM Tris-HCl (pH 7.8), 1 mM ethylenediamine tetraacetate, and 1 mM phenylmethanesulfonyl fluoride) using a homogenizer of the Potter type (Tokyo-RIKO). The homogenate was centrifuged at 12000×g, and the supernatant was ultracentrifuged at 100000×g. The sediment was taken as a microsome fraction, and this fraction was adjusted to have a protein concentration of 5 mg/ml using buffer solution A.
The chloroform layer was evaporated to dryness and was used to spot a thin layer chromatography plate (silica gel plate, Merck, 0.5 mm thickness). Elution for separation was carried out using a solvent of hexane/diethyl ether/acetic acid (70:30:1, v/v).

[1] = mouse liver microsome, 5 minutes at 37° C.

Structure (SMILES) | IC50 [1] [nM] | Specific activity: (inhibitory activity of test compound)/(inhibitory activity of pyripyropene A) | IC50 [nM]
CC(=O)OCC1(C)C2C[C@H](OC(=O)c3cccc4ccccc34)[C@@]3(C)Oc4cc(-c5cccnc5)oc(=O)c4[C@H](O)C3[C@@]2(C)CC[C@@H]1OC(C)=O (stereo partly shown) [PRD 038, 7-1-naphthoyl-7-deacetylpyripyropene A] | 10 to 100 | ++ (10 > specific activity > 5) | 
CC12COC(c3ccccc3)O[C@H]1CC[C@@]1(C)C2C[C@H](OC(=O)c2ccccc2C#N)[C@@]2(C)Oc3cc(-c4cccnc4)oc(=O)c3[C@H](O)C12 (stereo partly shown) [PRD 039, 1,11-O-benzylidene-7-O-o-cyanobenzoyl-1,7,11-trideacetylpyripyropene A] |  | +++ (50 > specific activity > 10) | 
CC12COC(c3ccccc3)O[C@H]1CC[C@@]1(C)C2C[C@H](OC(=O)c2cccc(C#N)c2)[C@@]2(C)Oc3cc(-c4cccnc4)oc(=O)c3[C@H](O)C12 (stereo partly shown) [PRD 040, 1,11-O-benzylidene-7-O-m-cyanobenzoyl-1,7,11-trideacetylpyripyropene A] | 10 to 100 | +++ (50 > specific activity > 10) | 
COc1ccccc1C(=O)O[C@H]1CC2C3(C)COC(c4ccccc4)O[C@H]3CC[C@]2(C)C2[C@@H](O)c3c(cc(-c4cccnc4)oc3=O)O[C@@]21C (stereo partly shown) [PRD 042, 1,11-O-benzylidene-7-O-o-methoxybenzoyl-1,7,11-trideacetylpyripyropene A] | 10 to 100 | +++ (50 > specific activity > 10) | 
COc1cccc(C(=O)O[C@H]2CC3C4(C)COC(c5ccccc5)O[C@H]4CC[C@]3(C)C3[C@@H](O)c4c(cc(-c5cccnc5)oc4=O)O[C@@]32C)c1 (stereo partly shown) [PRD 043, 1,11-O-benzylidene-7-O-m-methoxybenzoyl-1,7,11-trideacetylpyripyropene A] | 10 to 100 | +++ (50 > specific activity > 10) | 
COc1ccc(C(=O)O[C@H]2CC3C4(C)COC(c5ccccc5)O[C@H]4CC[C@]3(C)C3[C@@H](O)c4c(cc(-c5cccnc5)oc4=O)O[C@@]32C)cc1 (stereo partly shown) [PRD 044, 1,11-O-benzylidene-7-O-p-methoxybenzoyl-1,7,11-trideacetylpyripyropene A] | 10 to 100 | +++ (50 > specific activity > 10) | 
CC12COC(c3ccccc3)O[C@H]1CC[C@@]1(C)C2C[C@H](OC(=O)c2ccc([N+](=O)[O-])cc2)[C@@]2(C)Oc3cc(-c4cccnc4)oc(=O)c3[C@H](O)C12 (stereo partly shown) [PRD 045, 1,11-O-benzylidene-7-O-p-nitrobenzoyl-1,7,11-trideacetylpyripyropene A] | 10 to 100 | ++ (10 > specific activity > 5) | 
CC12COC(c3ccccc3)O[C@H]1CC[C@@]1(C)C2C[C@H](OC(=O)c2ccccc2F)[C@@]2(C)Oc3cc(-c4cccnc4)oc(=O)c3[C@H](O)C12 (stereo partly shown) [PRD 046, 1,11-O-benzylidene-7-O-o-fluorobenzoyl-1,7,11-trideacetylpyripyropene A] | 10 to 100 | +++ (50 > specific activity > 10) | 
CC12COC(c3ccccc3)O[C@H]1CC[C@@]1(C)C2C[C@H](OC(=O)c2cccc(F)c2)[C@@]2(C)Oc3cc(-c4cccnc4)oc(=O)c3[C@H](O)C12 (stereo partly shown) [PRD 047, 1,11-O-benzylidene-7-O-m-fluorobenzoyl-1,7,11-trideacetylpyripyropene A] | 10 to 100 | +++ (50 > specific activity > 10) | 
CC12COC(c3ccccc3)O[C@H]1CC[C@@]1(C)C2C[C@H](OC(=O)c2ccc(F)cc2)[C@@]2(C)Oc3cc(-c4cccnc4)oc(=O)c3[C@H](O)C12 (stereo partly shown) [PRD 048, 1,11-O-benzylidene-7-O-p-fluorobenzoyl-1,7,11-trideacetylpyripyropene A] | 10 to 100 | ++ (10 > specific activity > 5) | 
CC12COC(c3ccccc3)O[C@H]1CC[C@@]1(C)C2C[C@H](OC(=O)c2ccccc2Cl)[C@@]2(C)Oc3cc(-c4cccnc4)oc(=O)c3[C@H](O)C12 (stereo partly shown) [PRD 049, 1,11-O-benzylidene-7-O-o-chlorobenzoyl-1,7,11-trideacetylpyripyropene A] | 10 to 100 | +++ (50 > specific activity > 10) | 
CC12COC(c3ccccc3)O[C@H]1CC[C@@]1(C)C2C[C@H](OC(=O)c2cccc(Cl)c2)[C@@]2(C)Oc3cc(-c4cccnc4)oc(=O)c3[C@H](O)C12 (stereo partly shown) [PRD 050, 1,11-O-benzylidene-7-O-m-chlorobenzoyl-1,7,11-trideacetylpyripyropene A] | 10 to 100 | +++ (50 > specific activity > 10) | 
CC12COC(c3ccccc3)O[C@H]1CC[C@@]1(C)C2C[C@H](OC(=O)c2ccc(Cl)cc2)[C@@]2(C)Oc3cc(-c4cccnc4)oc(=O)c3[C@H](O)C12 (stereo partly shown) [PRD 051, 1,11-O-benzylidene-7-O-p-chlorobenzoyl-1,7,11-trideacetylpyripyropene A] | 10 to 100 | ++ (10 > specific activity > 5) | 
CC12COC(c3ccccc3)O[C@H]1CC[C@@]1(C)C2C[C@H](OC(=O)c2cccc(Br)c2)[C@@]2(C)Oc3cc(-c4cccnc4)oc(=O)c3[C@H](O)C12 (stereo partly shown) [PRD 052, 1,11-O-benzylidene-7-O-m-bromobenzoyl-1,7,11-trideacetylpyripyropene A] | 10 to 100 | ++ (10 > specific activity > 5) | 
CC12COC(c3ccccc3)O[C@H]1CC[C@@]1(C)C2C[C@H](OC(=O)c2ccc(Br)cc2)[C@@]2(C)Oc3cc(-c4cccnc4)oc(=O)c3[C@H](O)C12 (stereo partly shown) [PRD 053, 1,11-O-benzylidene-7-O-p-bromobenzoyl-1,7,11-trideacetylpyripyropene A] | 10 to 100 | + (5 > specific activity > 1) | 
CC12COC(c3ccccc3)O[C@H]1CC[C@@]1(C)C2C[C@H](OC(=O)c2ccc(C=O)cc2)[C@@]2(C)Oc3cc(-c4cccnc4)oc(=O)c3[C@H](O)C12 (stereo partly shown) [PRD 054, 1,11-O-benzylidene-7-O-p-formylbenzoyl-1,7,11-trideacetylpyripyropene A] | 10 to 100 | + (5 > specific activity > 1) | 
COCCOCO[C@H]1CC2C(C)(COC(C)=O)[C@@H](OC(C)=O)CC[C@]2(C)C2[C@@H](O)c3c(cc(-c4cccnc4)oc3=O)O[C@@]21C (stereo partly shown) [PRD 055, 7-deacetyl-7-O-methoxyethoxymethylpyripyropene A] | 10 to 100 | +++ (50 > specific activity > 10) | 
CC(=O)OCC1(C)C2C[C@H](OC(=O)Oc3ccccc3)[C@@]3(C)Oc4cc(-c5cccnc5)oc(=O)c4[C@H](O)C3[C@@]2(C)CC[C@@H]1OC(C)=O (stereo partly shown) [PRD 057, 7-deacetyl-7-O-phenoxycarbonylpyripyropene A] | 10 to 100 | + (5 > specific activity > 1) | 
CC(=O)OCC1(C)C2C[C@H](OC(=O)Oc3ccc(Cl)cc3)[C@@]3(C)Oc4cc(-c5cccnc5)oc(=O)c4[C@H](O)C3[C@@]2(C)CC[C@@H]1OC(C)=O (stereo partly shown) [PRD 058, 7-O-p-chlorophenoxycarbonyl-7-deacetylpyripyropene A] | 10 to 100 | +++ (50 > specific activity > 10) | 
CC12CO[Si](C(C)(C)C)(C(C)(C)C)O[C@H]1CC[C@@]1(C)C2C[C@H](OC(=O)c2ccc(C#N)cc2)[C@@]2(C)Oc3cc(-c4cccnc4)oc(=O)c3[C@H](O)C12 (stereo partly shown) [PRD 059, 7-O-p-cyanobenzoyl-1,11-O-(di-tert-butylsilylene)-1,7,11-trideacetylpyripyropene A] | 100 to 1000 | + (5 > specific activity > 1) | 
CC12CO[Si](C(C)(C)C)(C(C)(C)C)O[C@H]1CC[C@@]1(C)C2C[C@H](OC(=O)c2ccc(C#N)cc2)[C@@]2(C)Oc3cc(-c4cccnc4)oc(=O)c3[C@H](OC(=O)c3ccc(C#N)cc3)C12 (stereo partly shown) [PRD 060, 7,13-di-(O-p-cyanobenzoyl)-1,11-O-(di-tert-butylsilylene)-1,7,11-trideacetylpyripyropene A] | 100 to 1000 | + (5 > specific activity > 1) | 
CC(=O)OCC1(C)C2C=C[C@@]3(C)Oc4cc(-c5cccnc5)oc(=O)c4[C@H](O)C3[C@@]2(C)CC[C@@H]1OC(C)=O (stereo partly shown) [PRD 061, 7,8-olefinpyripyropene A] |  | + (5 > specific activity > 1) | 100 to 1000
